Assay results: paper PMC10192418, “High-affinity peptides developed against calprotectin and their application as synthetic ligands in diagnostic assays” (Nature Communications, 2023)
Where two headings read alike, the source gives them in different places. Numbered stars: 1 amine (or outer) side, 2 acyl side, 3 side chain; on linkers, the order of the positions; unused ones are H or OH. Bridge positions count the residues as written; N and C are the ends. Peptide text beside a SMILES is read from it. * marks the point of attachment. 5FAM = O=C1OC2(c3ccc(O)cc3Oc3cc(O)ccc32)c2ccc(C(=O)*)cc21; Pyridine(2,6-diCH2) = c1cc(C[*:1])nc(C[*:2])c1

Target: T1, calprotectin tetramer (recombinant B-RCAL, His6-linker-S100A9-linker-S100A8) (Homo sapiens, UniProt P05109)
T1 construct: we used the recombinant protein without removing the His-tag or cleaving the 8-amino acid linker between the two proteins; co-authors' company
T1 sequence (P05109 with tags, fused parts or gaps): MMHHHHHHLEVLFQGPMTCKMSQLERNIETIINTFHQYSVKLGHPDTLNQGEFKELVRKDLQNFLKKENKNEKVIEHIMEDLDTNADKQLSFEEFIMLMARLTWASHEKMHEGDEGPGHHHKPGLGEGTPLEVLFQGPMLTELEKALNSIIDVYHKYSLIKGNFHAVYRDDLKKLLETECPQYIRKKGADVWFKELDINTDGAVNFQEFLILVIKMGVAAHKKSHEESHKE
Experiment: Fluorescence polarization (FP) binding to recombinant calprotectin B-RCAL tetramer in presence of CaCl2
Protocol: Calprotectin was serially diluted in 20 mM HEPES, 100 mM NaCl, 2 mM CaCl2, pH 7.5, and 1 mM DTT with 0.01% (v/v) Tween-20. Volumes of 16 μL of protein were added to 4 μL of fluorescent peptide (20 nM final concentration) in black 384-well microtiter plates. Fluorescence anisotropy was measured on a microwell plate reader (Infinite M200Pro, Tecan) with filters for excitation at 485 nm and emission at 535 nm. The dissociation constant (Kd) was calculated using a following Eq. (1) using Prism 5 software (GraphPad):1 A=Af+Ab−Af×LT+KD+PT−LT+KD+PT^2−4LTPT/2LT where A is anisotropy, Af and Ab are the anisotropy values for free and bound ligands, respectively. [L]T is the concentration of the total fluorescent ligand and [P]T the concentration of the protein.

[1] = FP, alanine scan of linear peptide 3, 20 nM peptide, 2 mM CaCl2, one measurement, NB = non-binding

Row | Structure (SMILES) | Kd [1] | further results
1 | CSCC[C@H](NC(=O)[C@@H]1CCCN1C(=O)[C@H](Cc1ccccc1)NC(=O)[C@H](C)NC(=O)[C@@H](NC(=O)[C@@H]1CSCC(=O)CSC[C@H](NC(=O)[C@H](CCCNC(=N)N)NC(=O)c2ccc3c(c2)C(=O)OC32c3ccc(O)cc3Oc3cc(O)ccc32)C(=O)N2CCC[C@H]2C(=O)N[C@@H](CCC(=O)O)C(=O)N1)C(C)C)C(=O)N[C@@H](Cc1ccccc1)C(=O)N[C@@H](CCC(N)=O)C(=O)N[C@@H](CO)C(=O)N[C@@H](Cc1c[nH]cn1)C(=O)N[C@@H](Cc1c[nH]c2ccccc12)C(=O)N[C@@H](Cc1ccc(O)cc1)C(=O)N[C@@H](CO)C(=O)NCC(N)=O (single isomer, unassigned) [Peptide 3 Isomer 1a] | – | Kd: 0.0169 µM
2 | CSCC[C@H](NC(=O)[C@@H]1CCCN1C(=O)[C@H](Cc1ccccc1)NC(=O)[C@H](C)NC(=O)[C@@H](NC(=O)[C@H](CO)NC(=O)[C@H](CCC(=O)O)NC(=O)[C@@H]1CCCN1C(=O)[C@H](CO)NC(=O)[C@H](CCCNC(=N)N)NC(=O)c1ccc2c(c1)C(=O)OC21c2ccc(O)cc2Oc2cc(O)ccc21)C(C)C)C(=O)N[C@@H](Cc1ccccc1)C(=O)N[C@@H](CCC(N)=O)C(=O)N[C@H]1CSCC(=O)CSC[C@@H](C(=O)NCC(N)=O)NC(=O)[C@H](Cc2ccc(O)cc2)NC(=O)[C@H](Cc2c[nH]c3ccccc23)NC(=O)[C@H](Cc2c[nH]cn2)NC1=O (single isomer, unassigned) [Peptide 3 Isomer 1b] | – | Kd: 0.0179 µM
3 | CSCC[C@@H]1NC(=O)[C@@H]2CCCN2C(=O)[C@H](Cc2ccccc2)NC(=O)[C@H](C)NC(=O)[C@H](C(C)C)NC(=O)[C@@H]2CSCC(=O)CSC[C@@H](C(=O)NCC(N)=O)NC(=O)[C@H](Cc3ccc(O)cc3)NC(=O)[C@H](Cc3c[nH]c4ccccc34)NC(=O)[C@H](Cc3c[nH]cn3)NC(=O)[C@H](CSCC(=O)CSC[C@H](NC(=O)[C@H](CCCNC(=N)N)NC(=O)c3ccc4c(c3)C(=O)OC43c4ccc(O)cc4Oc4cc(O)ccc43)C(=O)N3CCC[C@H]3C(=O)N[C@@H](CCC(=O)O)C(=O)N2)NC(=O)[C@H](CCC(N)=O)NC(=O)[C@H](Cc2ccccc2)NC1=O (single isomer, unassigned) [Peptide 3 Isomer 2] | – | FP increase upon binding to calprotectin (FP, 2 mM CaCl2): 10–15%
4 | CSCC[C@@H]1NC(=O)[C@@H]2CCCN2C(=O)[C@H](Cc2ccccc2)NC(=O)[C@H](C)NC(=O)[C@H](C(C)C)NC(=O)[C@@H]2CSCC(=O)CSC[C@H](NC(=O)[C@H](CCC(N)=O)NC(=O)[C@H](Cc3ccccc3)NC1=O)C(=O)N[C@@H](Cc1c[nH]cn1)C(=O)N[C@@H](Cc1c[nH]c3ccccc13)C(=O)N[C@@H](Cc1ccc(O)cc1)C(=O)N[C@H](C(=O)NCC(N)=O)CSCC(=O)CSC[C@H](NC(=O)[C@H](CCCNC(=N)N)NC(=O)c1ccc3c(c1)C(=O)OC31c3ccc(O)cc3Oc3cc(O)ccc31)C(=O)N1CCC[C@H]1C(=O)N[C@@H](CCC(=O)O)C(=O)N2 (single isomer, unassigned) [Peptide 3 Isomer 3] | – | FP increase upon binding to calprotectin (FP, 2 mM CaCl2): 10–15%
5 | CC(C)C[C@H](NC(=O)[C@@H]1CCCN1C(=O)[C@H](Cc1ccccc1)NC(=O)[C@H](C)NC(=O)[C@@H](NC(=O)[C@H](CO)NC(=O)[C@H](CCC(=O)O)NC(=O)[C@@H]1CCCN1C(=O)[C@H](CO)NC(=O)[C@H](CCCNC(=N)N)NC(=O)c1ccc2c(c1)C(=O)OC21c2ccc(O)cc2Oc2cc(O)ccc21)C(C)C)C(=O)N[C@@H](Cc1ccccc1)C(=O)N[C@@H](CCC(N)=O)C(=O)N[C@@H](CO)C(=O)N[C@@H](Cc1c[nH]cn1)C(=O)N[C@@H](Cc1c[nH]c2ccccc12)C(=O)N[C@@H](Cc1ccc(O)cc1)C(=O)N[C@@H](CO)C(=O)NCC(N)=O [Met10Leu mutant] (5FAM-RSPESVAFPLFQSHWYSG-NH2) | – | Kd (FP, linear peptide 3 with Met10 mutated to leucine, 20 nM peptide, 2 mM CaCl2): 0.0306 ± 0.0046 µM
6 | CC[C@H](C)[C@@H]1NC(=O)[C@H](CO)NC(=O)[C@H](Cc2c[nH]c3ccccc23)NC(=O)[C@H](CCCNC(=N)N)NC(=O)[C@@H](NC(=O)[C@H](Cc2ccccc2)NC(=O)[C@@H]2CCCN2C(=O)c2ccc3c(c2)C(=O)OC32c3ccc(O)cc3Oc3cc(O)ccc32)CSCc2cccc(n2)CSC[C@@H](C(=O)N[C@@H](Cc2c[nH]cn2)C(N)=O)NC(=O)[C@H](CC(N)=O)NC(=O)[C@H](CC(=O)O)NC1=O [Peptide 9] (5FAM-PFCRWSIDNCH-NH2; linker 3-10 via Pyridine(2,6-diCH2)) | – | Kd (from fluorescence anisotropy titration, SI Figure 3): 29 µM
7 | CSCC[C@H](NC(=O)[C@@H]1CCCN1C(=O)[C@H](Cc1ccccc1)NC(=O)CNC(=O)[C@@H](NC(=O)[C@H](CO)NC(=O)[C@H](CCC(=O)O)NC(=O)[C@@H]1CCCN1C(=O)[C@H](CO)NC(=O)[C@H](CCCNC(=N)N)NC(=O)c1ccc2c(c1)C(=O)OC21c2ccc(O)cc2Oc2cc(O)ccc21)C(C)C)C(=O)N[C@@H](Cc1ccccc1)C(=O)N[C@@H](CCC(N)=O)C(=O)N[C@@H](CO)C(=O)N[C@@H](Cc1c[nH]cn1)C(=O)N[C@@H](Cc1c[nH]c2ccccc12)C(=O)N[C@@H](Cc1ccc(O)cc1)C(=O)N[C@@H](CO)C(=O)NCC(N)=O [Peptide A7G] (5FAM-RSPESVGFPMFQSHWYSG-NH2) | 0.029 µM | –
8 | CSCC[C@H](NC(=O)[C@@H]1CCCN1C(=O)[C@H](Cc1ccccc1)NC(=O)[C@H](C)NC(=O)[C@@H](NC(=O)[C@H](CO)NC(=O)[C@H](C)NC(=O)[C@@H]1CCCN1C(=O)[C@H](CO)NC(=O)[C@H](CCCNC(=N)N)NC(=O)c1ccc2c(c1)C(=O)OC21c2ccc(O)cc2Oc2cc(O)ccc21)C(C)C)C(=O)N[C@@H](Cc1ccccc1)C(=O)N[C@@H](CCC(N)=O)C(=O)N[C@@H](CO)C(=O)N[C@@H](Cc1c[nH]cn1)C(=O)N[C@@H](Cc1c[nH]c2ccccc12)C(=O)N[C@@H](Cc1ccc(O)cc1)C(=O)N[C@@H](CO)C(=O)NCC(N)=O [Peptide E4A] (5FAM-RSPASVAFPMFQSHWYSG-NH2) | 0.026 µM | –
9 | CSCC[C@H](NC(=O)[C@@H]1CCCN1C(=O)[C@H](Cc1ccccc1)NC(=O)[C@H](C)NC(=O)[C@@H](NC(=O)[C@H](CO)NC(=O)[C@H](CCC(=O)O)NC(=O)[C@@H]1CCCN1C(=O)[C@H](CO)NC(=O)[C@H](CCCNC(=N)N)NC(=O)c1ccc2c(c1)C(=O)OC21c2ccc(O)cc2Oc2cc(O)ccc21)C(C)C)C(=O)N[C@@H](Cc1ccccc1)C(=O)N[C@@H](CCC(N)=O)C(=O)N[C@@H](CO)C(=O)N[C@@H](Cc1c[nH]cn1)C(=O)N[C@@H](Cc1c[nH]c2ccccc12)C(=O)N[C@@H](Cc1ccc(O)cc1)C(=O)N[C@@H](CO)C(=O)N[C@@H](C)C(N)=O [Peptide G18A] (5FAM-RSPESVAFPMFQSHWYSA-NH2) | 0.031 µM | –
10 | CSCC[C@H](NC(=O)[C@@H]1CCCN1C(=O)[C@H](Cc1ccccc1)NC(=O)[C@H](C)NC(=O)[C@@H](NC(=O)[C@H](CO)NC(=O)[C@H](CCC(=O)O)NC(=O)[C@H](C)NC(=O)[C@H](CO)NC(=O)[C@H](CCCNC(=N)N)NC(=O)c1ccc2c(c1)C(=O)OC21c2ccc(O)cc2Oc2cc(O)ccc21)C(C)C)C(=O)N[C@@H](Cc1ccccc1)C(=O)N[C@@H](CCC(N)=O)C(=O)N[C@@H](CO)C(=O)N[C@@H](Cc1c[nH]cn1)C(=O)N[C@@H](Cc1c[nH]c2ccccc12)C(=O)N[C@@H](Cc1ccc(O)cc1)C(=O)N[C@@H](CO)C(=O)NCC(N)=O [Peptide P3A] (5FAM-RSAESVAFPMFQSHWYSG-NH2) | 0.028 µM | –
11 | CSCC[C@H](NC(=O)[C@H](C)NC(=O)[C@H](Cc1ccccc1)NC(=O)[C@H](C)NC(=O)[C@@H](NC(=O)[C@H](CO)NC(=O)[C@H](CCC(=O)O)NC(=O)[C@@H]1CCCN1C(=O)[C@H](CO)NC(=O)[C@H](CCCNC(=N)N)NC(=O)c1ccc2c(c1)C(=O)OC21c2ccc(O)cc2Oc2cc(O)ccc21)C(C)C)C(=O)N[C@@H](Cc1ccccc1)C(=O)N[C@@H](CCC(N)=O)C(=O)N[C@@H](CO)C(=O)N[C@@H](Cc1c[nH]cn1)C(=O)N[C@@H](Cc1c[nH]c2ccccc12)C(=O)N[C@@H](Cc1ccc(O)cc1)C(=O)N[C@@H](CO)C(=O)NCC(N)=O [Peptide P9A] (5FAM-RSPESVAFAMFQSHWYSG-NH2) | 0.03 µM | –
12 | CSCC[C@H](NC(=O)[C@@H]1CCCN1C(=O)[C@H](Cc1ccccc1)NC(=O)[C@H](C)NC(=O)[C@@H](NC(=O)[C@H](CO)NC(=O)[C@H](CCC(=O)O)NC(=O)[C@@H]1CCCN1C(=O)[C@H](CO)NC(=O)[C@H](CCCNC(=N)N)NC(=O)c1ccc2c(c1)C(=O)OC21c2ccc(O)cc2Oc2cc(O)ccc21)C(C)C)C(=O)N[C@@H](Cc1ccccc1)C(=O)N[C@@H](C)C(=O)N[C@@H](CO)C(=O)N[C@@H](Cc1c[nH]cn1)C(=O)N[C@@H](Cc1c[nH]c2ccccc12)C(=O)N[C@@H](Cc1ccc(O)cc1)C(=O)N[C@@H](CO)C(=O)NCC(N)=O [Peptide Q12A] (5FAM-RSPESVAFPMFASHWYSG-NH2) | 0.027 µM | –
13 | CSCC[C@H](NC(=O)[C@@H]1CCCN1C(=O)[C@H](Cc1ccccc1)NC(=O)[C@H](C)NC(=O)[C@@H](NC(=O)[C@H](CO)NC(=O)[C@H](CCC(=O)O)NC(=O)[C@@H]1CCCN1C(=O)[C@H](CO)NC(=O)[C@H](C)NC(=O)c1ccc2c(c1)C(=O)OC21c2ccc(O)cc2Oc2cc(O)ccc21)C(C)C)C(=O)N[C@@H](Cc1ccccc1)C(=O)N[C@@H](CCC(N)=O)C(=O)N[C@@H](CO)C(=O)N[C@@H](Cc1c[nH]cn1)C(=O)N[C@@H](Cc1c[nH]c2ccccc12)C(=O)N[C@@H](Cc1ccc(O)cc1)C(=O)N[C@@H](CO)C(=O)NCC(N)=O [Peptide R1A] (5FAM-ASPESVAFPMFQSHWYSG-NH2) | 0.032 µM | –
